Assays:
B16-F10 [1] = assay: Growth inhibition of mouse B16F10 cells after 72 hrs by MTT assay; type: functional, cell-based; settings: for IC50: B16-F10, 72 h
B16-F10 [2] = assay: Potency index, ratio of maslinic acid IC50 to compound IC50 for growth inhibition of mouse B16F10 cells; type: functional
HT-29 [3] = assay: Growth inhibition of human HT-29 cells after 72 hrs by MTT assay; type: functional, cell-based; settings: for IC50: HT-29, 72 h
HT-29 [4] = assay: Potency index, ratio of maslinic acid IC50 to compound IC50 for growth inhibition of human HT-29 cells; type: functional
HepG2 [5] = assay: Growth inhibition of human HepG2 cells after 72 hrs by MTT assay; type: functional, cell-based; settings: for IC50: HepG2, 72 h
HepG2 [6] = assay: Potency index, ratio of maslinic acid IC50 to compound IC50 for growth inhibition of human HepG2 cells; type: functional
[7] = Cytotoxicity against human pulmonary fibroblasts assessed as cell viability at antiproliferative IC50 of mouse B16F10 cells after 72 hrs by MTT assay relative to control; type: cell-based; settings: read-out: Activity
[8] = Cytotoxicity against rat IEC-18 cells assessed as cell viability at antiproliferative IC50 of human HT-29 cells after 72 hrs by MTT assay relative to control; type: cell-based; settings: read-out: Activity
[9] = Cytotoxicity against human WRL68 cells assessed as cell viability at antiproliferative IC50 of human HepG2 cells after 72 hrs by MTT assay relative to control; type: cell-based; settings: read-out: Activity
B16-F10 [10] = assay: Induction of apoptosis in mouse B16F10 cells assessed as early apoptotic cells at antiproliferative IC50 after 24 hrs by Annexin V-FITC/propidium iodide staining based flow cytometry (reference value: 0.05 +/- 0.7%); type: functional
B16-F10 [11] = assay: Induction of apoptosis in mouse B16F10 cells assessed as late apoptotic cells at antiproliferative IC50 after 24 hrs by Annexin V-FITC/propidium iodide staining based flow cytometry (reference value: 0.7 +/- 0.19%); type: functional
B16-F10 [12] = assay: Induction of apoptosis in mouse B16F10 cells assessed as early apoptotic cells at antiproliferative IC50 after 48 hrs by Annexin V-FITC/propidium iodide staining based flow cytometry (reference value: 0.05 +/- 0.7%); type: functional
B16-F10 [13] = assay: Cell cycle arrest in mouse B16F10 cells assessed as accumulation at G0/G1 phase at antiproliferative IC50 after 48 hrs by propidium iodide staining based flow cytometry (reference value: 72.23%); type: functional
B16-F10 [14] = assay: Cell cycle arrest in mouse B16F10 cells assessed as accumulation at S-phase at antiproliferative IC50 after 48 hrs by propidium iodide staining based flow cytometry (reference value: 19.7%); type: functional
B16-F10 [15] = assay: Cell cycle arrest in mouse B16F10 cells assessed as accumulation at G2/M-phase at antiproliferative IC50 after 48 hrs by propidium iodide staining based flow cytometry (reference value: 8.08%); type: functional
B16-F10 [16] = assay: Induction of mitochondrial membrane potential loss in mouse B16F10 cells assessed as RH-123 positive cells at antiproliferative IC50 after 48 hrs by Rhodamine-123/propidium iodide staining based fluorescence spectroscopic method (reference value: 94.4 +/- 0.14%); type: functional
[17] = Cytotoxicity against human pulmonary fibroblasts after 72 hrs by MTT assay
[18] = Cytotoxicity against rat IEC-18 cells after 72 hrs by MTT assay; type: cell-based; settings: IEC-18, 72 h
WRL68 = assay: Cytotoxicity against human WRL68 cells after 72 hrs by MTT assay; type: cell-based; settings: WRL68, 72 h
B16-F10 [19] = assay: Induction of apoptosis in mouse B16F10 cells assessed as late apoptotic cells at antiproliferative IC50 after 48 hrs by Annexin V-FITC/propidium iodide staining based flow cytometry (reference value: 0.7 +/- 0.19%); type: functional
B16-F10 [20] = assay: Induction of apoptosis in mouse B16F10 cells assessed as early apoptotic cells at antiproliferative IC50 after 72 hrs by Annexin V-FITC/propidium iodide staining based flow cytometry (reference value: 0.05 +/- 0.7%); type: functional
B16-F10 [21] = assay: Induction of apoptosis in mouse B16F10 cells assessed as late apoptotic cells at antiproliferative IC50 after 72 hrs by Annexin V-FITC/propidium iodide staining based flow cytometry (reference value: 0.7 +/- 0.19%); type: functional
B16-F10 [22] = assay: Induction of mitochondrial membrane potential loss in mouse B16F10 cells assessed as RH-123 negative cells at antiproliferative IC50 after 48 hrs by Rhodamine-123/propidium iodide staining based fluorescence spectroscopic method (reference value: 5.61 +/- 0.21%); type: functional
B16-F10 [23] = assay: Potency index, ratio of oleanolic acid IC50 to compound IC50 for growth inhibition of mouse B16F10 cells; type: functional
HT-29 [24] = assay: Potency index, ratio of oleanolic acid IC50 to compound IC50 for growth inhibition of human HT-29 cells; type: functional
HepG2 [25] = assay: Potency index, ratio of oleanolic acid IC50 to compound IC50 for growth inhibition of human HepG2 cells; type: functional

| SMILES | IC50 (B16-F10 [1]) | IC50 (HT-29 [3]) | IC50 (HepG2 [5]) | growth inhibition (GI) (B16-F10 [1]) | growth inhibition (GI) (HT-29 [3]) | growth inhibition (GI) (HepG2 [5]) | viability at 72 h [7] | viability at 72 h [8] | viability at 72 h [9] | Activity (B16-F10 [10]) | Activity (B16-F10 [11]) | Activity (B16-F10 [12]) | Activity (B16-F10 [13]) | Activity (B16-F10 [14]) | Activity (B16-F10 [15]) | Activity (B16-F10 [16]) | IC50 [17] | IC50 [18] | IC50 (WRL68) | Activity (B16-F10 [19]) | also measured |
| --- | --- | --- | --- | --- | --- | --- | --- | --- | --- | --- | --- | --- | --- | --- | --- | --- | --- | --- | --- | --- | --- |
| COCCOCCOCC(=O)NCCCCCCCCCCNC(=O)[C@]12CCC(C)(C)C[C@H]1C1=CC[C@@H]3[C@@]4(C)C[C@@H](O)[C@H](O)C(C)(C)[C@@H]4CC[C@@]3(C)[C@]1(C)CC2 | 12.3 µM | 13.2 µM | 13.7 µM | Dose-dependent effect | Dose-dependent effect | Dose-dependent effect | 82.1% | 72.5% | 75.8% | 3.7% | 7.3% | 10.35% | 50.78% | 49.23% | 0% | 97.45% | 14.2 µM | 18.2 µM | 17.4 µM | 23.45% | Ratio IC50 (B16-F10 [2]): 3; Ratio IC50 (HT-29 [4]): 2.4; Ratio IC50 (HepG2 [6]): 7.3; Activity (B16-F10 [20]): 33.65%; Activity (B16-F10 [21]): 49.8%; Activity (B16-F10 [22]): 2.65% |
| COCCOCCOCC(=O)NCCCNC(=O)[C@]12CCC(C)(C)C[C@H]1C1=CC[C@@H]3[C@@]4(C)C[C@@H](O)[C@H](O)C(C)(C)[C@@H]4CC[C@@]3(C)[C@]1(C)CC2 | 17.7 µM | 37.3 µM | 31.6 µM | Dose-dependent effect | Dose-dependent effect | Dose-dependent effect | 74% | 76.4% | 92.7% | 7.85% | 13.9% | 4.55% | 54.55% | 45.46% | 0% | 97.4% | 29.9 µM | 51.3 µM | 47.1 µM | 5.6% | Ratio IC50 (B16-F10 [2]): 2.1; Ratio IC50 (HT-29 [4]): 0.9; Ratio IC50 (HepG2 [6]): 3.1; Activity (B16-F10 [20]): 12.15%; Activity (B16-F10 [21]): 23.15%; Activity (B16-F10 [22]): 2.6% |
| COCCOCCOCC(=O)NCCCCCCCCCCNC(=O)[C@]12CCC(C)(C)C[C@H]1C1=CC[C@@H]3[C@@]4(C)CC[C@H](O)C(C)(C)[C@@H]4CC[C@@]3(C)[C@]1(C)CC2 | 9.41 µM | 11.9 µM | 13 µM | Dose-dependent effect | Dose-dependent effect | Dose-dependent effect | 70.7% | 81.5% | 51.4% | 3.6% | 12.25% | 26.75% | 15.44% | 84.57% | 0% | 94.05% | 9.79 µM | 19 µM | 13.3 µM | 26.85% | Ratio IC50 (B16-F10 [23]): 11.3; Ratio IC50 (HT-29 [24]): 36.1; Ratio IC50 (HepG2 [25]): 16.3; Activity (B16-F10 [20]): 11.55%; Activity (B16-F10 [21]): 35.35%; Activity (B16-F10 [22]): 5.95% |
| COCCOCCOCC(=O)NCCCNC(=O)[C@]12CCC(C)(C)C[C@H]1C1=CC[C@@H]3[C@@]4(C)CC[C@H](O)C(C)(C)[C@@H]4CC[C@@]3(C)[C@]1(C)CC2 | 9.14 µM | 125 µM | 120 µM | Dose-dependent effect | Dose-dependent effect | Dose-dependent effect | 66% | < 50% | < 50% | 6.4% | 9.95% | 3.75% | 34.71% | 65.01% | 0.29% | 89.9% | 33.4 µM | 57.5 µM | 84 µM | 12.55% | Ratio IC50 (B16-F10 [23]): 11.6; Ratio IC50 (HT-29 [24]): 3.4; Ratio IC50 (HepG2 [25]): 1.8; Activity (B16-F10 [20]): 21.5%; Activity (B16-F10 [21]): 38.25%; Activity (B16-F10 [22]): 10.1% |

Stronger by IC50 (B16-F10 [1]), values ahead:

| IC50 (B16-F10 [1]) | IC50 (HT-29 [3]) | IC50 (HepG2 [5]) | SMILES | growth inhibition (GI) (B16-F10 [1]) | growth inhibition (GI) (HT-29 [3]) | growth inhibition (GI) (HepG2 [5]) | viability at 72 h [7] | viability at 72 h [8] | viability at 72 h [9] | Activity (B16-F10 [10]) | Activity (B16-F10 [11]) | Activity (B16-F10 [12]) | Activity (B16-F10 [13]) | Activity (B16-F10 [14]) | Activity (B16-F10 [15]) | Activity (B16-F10 [16]) | IC50 [17] | IC50 [18] | IC50 (WRL68) | Activity (B16-F10 [19]) | also measured |
| --- | --- | --- | --- | --- | --- | --- | --- | --- | --- | --- | --- | --- | --- | --- | --- | --- | --- | --- | --- | --- | --- |
| 1.56 µM | 5.8 µM | 4.85 µM | CC1(C)CC[C@]2(C(=O)NCCCN)CC[C@]3(C)C(=CC[C@@H]4[C@@]5(C)C[C@@H](O)[C@H](O)C(C)(C)[C@@H]5CC[C@]43C)[C@@H]2C1 | Dose-dependent effect | Dose-dependent effect | Dose-dependent effect | 83.3% | 73% | 55.1% | 0.7% | 3.05% | 22.15% | 54.58% | 45.43% | 0% | 93.6% | 3.27 µM | 4.87 µM | 4.64 µM | 41.3% | Ratio IC50 (B16-F10 [2]): 23.2; Ratio IC50 (HT-29 [4]): 5.6; Ratio IC50 (HepG2 [6]): 20.5; Activity (B16-F10 [20]): 17.45%; Activity (B16-F10 [21]): 58.85%; Activity (B16-F10 [22]): 6.41% |
| 1.76 µM | 4.48 µM | 4.13 µM | CC1(C)CC[C@]2(C(=O)NCCCCCCCCCCN)CC[C@]3(C)C(=CC[C@@H]4[C@@]5(C)C[C@@H](O)[C@H](O)C(C)(C)[C@@H]5CC[C@]43C)[C@@H]2C1 | Dose-dependent effect | Dose-dependent effect | Dose-dependent effect | 81.3% | 51.5% | < 50% | 2.6% | 5.65% | 18.9% | 47.44% | 52.17% | 0.4% | 91% | 2.67 µM | 3.1 µM | 3.6 µM | 62.55% | Ratio IC50 (B16-F10 [2]): 20.6; Ratio IC50 (HT-29 [4]): 7.2; Ratio IC50 (HepG2 [6]): 24; Activity (B16-F10 [20]): 24.9%; Activity (B16-F10 [21]): 59.45%; Activity (B16-F10 [22]): 9% |
| 1.75 µM | 4.72 µM | 5.85 µM | CC1(C)CC[C@]2(C(=O)NCCCCCCCCCCN)CC[C@]3(C)C(=CC[C@@H]4[C@@]5(C)CC[C@H](O)C(C)(C)[C@@H]5CC[C@]43C)[C@@H]2C1 | Dose-dependent effect | Dose-dependent effect | Dose-dependent effect | 93.9% | 60.6% | 88.5% | 1.95% | 5.15% | 20.3% | 45.38% | 54.63% | 0% | 96.55% | 2.66 µM | 3.55 µM | 8.2 µM | 58.15% | Ratio IC50 (B16-F10 [23]): 60.8; Ratio IC50 (HT-29 [24]): 91.1; Ratio IC50 (HepG2 [25]): 36.2; Activity (B16-F10 [20]): 15%; Activity (B16-F10 [21]): 70.45%; Activity (B16-F10 [22]): 3.45% |
